Patent US20140128385A1 (NOVARTIS AG, priority 2011, published 2014)
Structures can show the parent of a compound that is named as a salt.

molecular target: T1, BACE-2 (Homo sapiens, UniProt Q9Y5Z0); assay: assay for inhibition of BACE-2; format: biochemical
T1 construct: Recombinant BACE-2 (extracellular domain, expressed in baculovirus and purified using standard methods); made in house
T1 sequence (Q9Y5Z0 63-473 limits assumed): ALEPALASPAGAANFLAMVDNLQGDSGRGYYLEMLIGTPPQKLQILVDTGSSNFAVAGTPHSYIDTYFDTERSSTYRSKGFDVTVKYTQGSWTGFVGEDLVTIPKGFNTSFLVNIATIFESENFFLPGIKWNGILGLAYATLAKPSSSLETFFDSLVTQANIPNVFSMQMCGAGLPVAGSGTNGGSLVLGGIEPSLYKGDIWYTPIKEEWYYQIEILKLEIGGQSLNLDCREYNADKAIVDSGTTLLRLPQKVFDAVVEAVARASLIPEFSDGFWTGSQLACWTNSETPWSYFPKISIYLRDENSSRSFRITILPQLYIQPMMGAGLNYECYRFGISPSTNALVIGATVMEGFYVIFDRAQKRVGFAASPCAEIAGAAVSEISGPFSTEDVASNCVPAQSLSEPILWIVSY

SMILES | IC50
NC1=N[C@@](c2cc(NC(=O)c3ccc(=O)[nH]c3)ccc2F)(C(F)F)COC1 [Example 162, 6-Oxo-1,6-dihydro-pyridine-3-carboxylic acid [3-((R)-5-amino-3-difluoromethyl-3,6-dihydro-2H-[1,4]oxazin-3-yl)-4-fluoro-phenyl]-amide hydrochloride] | > 10000 nM
NC1=N[C@@](c2cc(NC(=O)c3cc4cccn4cn3)ccc2F)(C(F)F)COC1 [Example 163, Pyrrolo[1,2-c]pyrimidine-3-carboxylic acid [3-((R)-5-amino-3-difluoromethyl-3,6-dihydro-2H-[1,4]oxazin-3-yl)-4-fluoro-phenyl]-amide] | 405 nM
CC#CCOc1cnc(C(=O)Nc2ccc(F)c([C@]3(C(F)F)COCC(N)=N3)c2)cn1 [Example 164, 5-But-2-ynyloxy-pyrazine-2-carboxylic acid [3-((R)-5-amino-3-difluoromethyl-3,6-dihydro-2H-[1,4]oxazin-3-yl)-4-fluoro-phenyl]-amide hydrochloride] | 76 nM
CCn1ccnc1C(=O)Nc1ccc(F)c([C@]2(C(F)F)COCC(N)=N2)c1 [Example 166, 1-Ethyl-1H-imidazole-2-carboxylic acid [3-((R)-5-amino-3-difluoromethyl-3,6-dihydro-2H-[1,4]oxazin-3-yl)-4-fluoro-phenyl]-amide hydrochloride] | 378 nM
C#CCOc1cnc(C(=O)Nc2ccc(F)c([C@]3(C(F)F)COCC(N)=N3)c2)cn1 [Example 167, 5-Prop-2-ynyloxy-pyrazine-2-carboxylic acid [3-((R)-5-amino-3-difluoromethyl-3,6-dihydro-2H-[1,4]oxazin-3-yl)-4-fluoro-phenyl]-amide hydrochloride] | 172 nM
Cc1nc(C(=O)Nc2ccc(F)c([C@]3(C(F)F)COCC(N)=N3)c2)c(N)o1 [Example 168, 5-Amino-2-methyl-oxazole-4-carboxylic acid [3-((R)-5-amino-3-difluoromethyl-3,6-dihydro-2H-[1,4]oxazin-3-yl)-4-fluoro-phenyl]-amide hydrochloride] | 35 nM
CC(C)Oc1cnc(C(=O)Nc2ccc(F)c([C@]3(C(F)F)COCC(N)=N3)c2)cn1 [Example 170, 5-Isopropoxy-pyrazine-2-carboxylic acid [3-((R)-5-amino-3-difluoromethyl-3,6-dihydro-2H-[1,4]oxazin-3-yl)-4-fluoro-phenyl]-amide] | 2710 nM
CCOc1cnc(C(=O)Nc2ccc(F)c([C@]3(C(F)F)COCC(N)=N3)c2)cn1 [Example 171, 5-Ethoxy-pyrazine-2-carboxylic acid [3-((R)-5-amino-3-difluoromethyl-3,6-dihydro-2H-[1,4]oxazin-3-yl)-4-fluoro-phenyl]-amide] | 200 nM
Cc1c(C(=O)Nc2ccc(F)c([C@]3(C(F)F)COCC(N)=N3)c2)oc2ccc(CN(C)C)cc12 [Example 172, 5-Dimethylaminomethyl-3-methyl-benzofuran-2-carboxylic acid [3-((R)-5-amino-3-difluoromethyl-3,6-dihydro-2H-[1,4]oxazin-3-yl)-4-fluoro-phenyl]-amide hydrochloride] | 7 nM
Cc1c(C(=O)Nc2ccc(F)c([C@]3(C(F)F)COCC(N)=N3)c2)nnn1C [Example 173, 1,5-Dimethyl-1H-[1,2,3]triazole-4-carboxylic acid [3-((R)-5-amino-3-difluoromethyl-3,6-dihydro-2H-[1,4]oxazin-3-yl)-4-fluoro-phenyl]-amide hydrochloride] | > 10000 nM
COc1cnc(C(=O)Nc2ccc(F)c([C@]3(C(F)F)COCC(N)=N3)c2)c(C)n1 [Example 174, 5-Methoxy-3-methyl-pyrazine-2-carboxylic acid [3-((R)-5-amino-3-difluoromethyl-3,6-dihydro-2H-[1,4]oxazin-3-yl)-4-fluoro-phenyl]-amide hydrochloride] | 276 nM
COc1cnc(C(=O)Nc2ccc(F)c([C@]3(C(F)F)COCC(N)=N3)c2)c(N)n1 [Example 175, 3-Amino-5-methoxy-pyrazine-2-carboxylic acid [3-((R)-5-amino-3-difluoromethyl-3,6-dihydro-2H-[1,4]oxazin-3-yl)-4-fluoro-phenyl]-amide hydrochloride] | 111 nM
Cc1cc(OC(F)F)cnc1C(=O)Nc1ccc(F)c([C@]2(C(F)F)COCC(N)=N2)c1 [Example 176, 5-Difluoromethoxy-3-methyl-pyridine-2-carboxylic acid [3-((R)-5-amino-3-difluoromethyl-3,6-dihydro-2H-[1,4]oxazin-3-yl)-4-fluoro-phenyl]-amide hydrochloride] | 183 nM
COCCOc1cnc(C(=O)Nc2ccc(F)c([C@]3(C(F)F)COCC(N)=N3)c2)c(C)n1 [Example 178, 5-(2-Methoxy-ethoxy)-3-methyl-pyrazine-2-carboxylic acid [3-((R)-5-amino-3-difluoromethyl-3,6-dihydro-2H-[1,4]oxazin-3-yl)-4-fluoro-phenyl]-amide hydrochloride] | 2960 nM
COCCOc1ccc(C(=O)Nc2ccc(F)c([C@]3(C(F)F)COCC(N)=N3)c2)nc1 [Example 180, 5-(2-Methoxy-ethoxy)-pyridine-2-carboxylic acid [3-((R)-5-amino-3-difluoromethyl-3,6-dihydro-2H-[1,4]oxazin-3-yl)-4-fluoro-phenyl]-amide hydrochloride] | 1650 nM
COCCOc1cnc(C(=O)Nc2ccc(F)c([C@]3(C(F)F)COCC(N)=N3)c2)c(F)c1 [Example 181, 3-Fluoro-5-(2-methoxy-ethoxy)-pyridine-2-carboxylic acid [3-((R)-5-amino-3-difluoromethyl-3,6-dihydro-2H-[1,4]oxazin-3-yl)-4-fluoro-phenyl]-amide hydrochloride] | 6080 nM
CC#CCOc1cnc(C(=O)Nc2ccc(F)c([C@]3(C(F)F)COCC(N)=N3)c2)c(C)n1 [Example 182, 5-But-2-ynyloxy-3-methyl-pyrazine-2-carboxylic acid [3-((R)-5-amino-3-difluoromethyl-3,6-dihydro-2H-[1,4]oxazin-3-yl)-4-fluoro-phenyl]-amide hydrochloride] | 171 nM
CN1CC(N)=NC(C)(c2cc(NC(=O)c3ccc(Br)cn3)ccc2F)C1=O (stereo not drawn) [Example 186, 5-Bromo-pyridine-2-carboxylic acid [3-(6-amino-2,4-dimethyl-3-oxo-2,3,4,5-tetrahydro-pyrazin-2-yl)-4-fluoro-phenyl]-amide] | 9110 nM
CN1CC(N)=NC(C)(c2cc(NC(=O)c3ccc(Br)cn3)ccc2F)C1 (stereo not drawn) [Example 187, 5-Bromo-pyridine-2-carboxylic acid [3-(6-amino-2,4-dimethyl-2,3,4,5-tetrahydro-pyrazin-2-yl)-4-fluoro-phenyl]-amide] | 104 nM

Results, then the molecule that gave them:

IC50 | SMILES
82 nM | COc1cnc(C(=O)Nc2ccc(F)c([C@]3(C(F)F)COCC(N)=N3)c2)c(Cl)c1 [Example 161, 3-Chloro-5-methoxy-pyridine-2-carboxylic acid [3-((R)-5-amino-3-difluoromethyl-3,6-dihydro-2H-[1,4]oxazin-3-yl)-4-fluoro-phenyl]-amide]
5 nM | NC1=N[C@@](c2cc(NC(=O)c3ncc(Br)cc3N)ccc2F)(C(F)F)COC1 [Example 165, 3-Amino-5-bromo-pyridine-2-carboxylic acid [3-((R)-5-amino-3-difluoromethyl-3,6-dihydro-2H-[1,4]oxazin-3-yl)-4-fluoro-phenyl]-amide hydrochloride]
4 nM | NC1=N[C@@](c2cc(NC(=O)c3ncc(Cl)cc3O)ccc2F)(C(F)F)COC1 [Example 169, 5-Chloro-3-hydroxy-pyridine-2-carboxylic acid [3-((R)-5-amino-3-difluoromethyl-3,6-dihydro-2H-[1,4]oxazin-3-yl)-4-fluoro-phenyl]-amide]
37 nM | Cc1cc(OCF)cnc1C(=O)Nc1ccc(F)c([C@]2(C(F)F)COCC(N)=N2)c1 [Example 177, 5-Fluoromethoxy-3-methyl-pyridine-2-carboxylic acid [3-((R)-5-amino-3-difluoromethyl-3,6-dihydro-2H-[1,4]oxazin-3-yl)-4-fluoro-phenyl]-amide hydrochloride]
270 nM | COc1cnc(C(=O)Nc2ccc(F)c([C@]3(C(F)F)COCC(N)=N3)c2)c(OC)c1 [Example 179, 3,5-Dimethoxy-pyridine-2-carboxylic acid [3-((R)-5-amino-3-difluoromethyl-3,6-dihydro-2H-[1,4]oxazin-3-yl)-4-fluoro-phenyl]-amide hydrochloride]
4940 nM | COCc1cnc(C(=O)Nc2ccc(F)c([C@]3(C(F)F)COCC(N)=N3)c2)c(Cl)c1 [Example 183, 3-Chloro-5-methoxymethyl-pyridine-2-carboxylic acid [3-((R)-5-amino-3-di-fluoromethyl-3,6-dihydro-2H-[1,4]oxazin-3-yl)-4-fluoro-phenyl]-amide hydrochloride]
47 nM | NC1=N[C@@](c2cc(NC(=O)c3ncc(OCF)cc3Cl)ccc2F)(C(F)F)COC1 [Example 184, 3-Chloro-5-fluoromethoxy-pyridine-2-carboxylic acid [3-((R)-5-amino-3-di-fluoromethyl-3,6-dihydro-2H-[1,4]oxazin-3-yl)-4-fluoro-phenyl]-amide hydrochloride]
199 nM | NC1=N[C@@](c2cc(NC(=O)c3ncc(OC(F)F)cc3Cl)ccc2F)(C(F)F)COC1 [Example 185, 3-Chloro-5-difluoromethoxy-pyridine-2-carboxylic acid [3-((R)-5-amino-3-difluoromethyl-3,6-dihydro-2H-[1,4]oxazin-3-yl)-4-fluoro-phenyl]-amide hydrochloride]
